Experimental data: patent US20260078111A1, “CARBONIC ANHYDRASE ENZYME INHIBITORS AND METHODS OF USE THEREOF” (RUTGERS, THE STATE UNIVERSITY OF NEW JERSEY, priority 2022, published 2026)

How the values were obtained:
recombinant human Car1 = recombinant human Car1 (Homo sapiens, UniProt P00915); assay: Stopped-flow assay of Car1 enzyme inhibition (IC50); type: biochemical
Description: Stopped-flow: IC50 values were established using an SX20 stopped-flow spectrometer from […]. In one syringe of the SX20, recombinant human Car1 was kept at a concentration of 9 μM in a sodium phosphate buffer and inhibitors were added to this solution at 0 nM, 10 nM, 20 nM, 80 nM and 100 nM. In a second syringe, a saturated CO2 solution was mixed with 0.2 mM phenol red. This series of dilutions allow for the evaluation of how quickly Car1 can metabolize the CO2 in the absence of an inhibitor and for the determination of whether that process is inhibited as increasing concentrations of compounds are added.

[1] = system: mast cell development from murine bone marrow cells; assay: In vitro mast cell development culture assay (IL-3, flow cytometry); type: cell-based, mice
Description: To further test the ability of 4-(3-hydroxy-1-(4-methoxybenzyl)-2-oxoindolin-3-yl)benzenesulfonamide to inhibit mast cell development, an established mast cell culture assay was employed (Henry, E. K., et al., J Exp Med, 2016. 213(9): p. 1663-73). As a positive control for mast cell development, bone marrow cells were isolated from the femur of mice and cultured in the presence of 10 ng/mL of IL-3 and vehicle (1:10, DMSO/RPMI complete media) for seven days and mast cells were identified by flow cytometric analysis as (c-Kit+ FceRIa+ CD49b− cells).
In vitro Mast Cell development: Briefly, 1×10^6 bone marrow-resident progenitor cells were isolated from the femur of mice and cultured in complete media supplemented with 10 ng/mL of rIL-3 for a period of […]. Mast cells were identified by their expression of the surface molecules FcεRIα and c-Kit via flow cytometric analysis. In addition to IL-3, cultures were treated with vehicle or increasing concentrations of Car enzyme inhibitors at the indicated concentrations.

[2] = system: intestinal mast cell responses; assay: Trichinella spiralis-induced mastocytosis model; type: in vivo; settings: 2 mg/day i.p., T. spiralis-infected mice, day 10 post-infection
Excerpt: To address this, a model of Trichinella spiralis-induced mastocytosis was employed and the capacity of MZ and 4-(3-hydroxy-1-(4-methoxybenzyl)-2-oxoindolin-3-yl)benzenesulfonamide to inhibit intestinal mast cell responses was directly compared (Henry, E. K., et al., J Exp Med, 2016. 213(9): p. 1663-73). Briefly, mice were infected with T. spiralis and treated with either vehicle, MZ or 4-(3-hydroxy-1-(4-methoxybenzyl)-2-oxoindolin-3-yl)benzenesulfonamide and intestinal mast cells were quantified via esterase staining and histological analysis (Henry, E. K., et al., J Exp Med, 2016. 213(9): p. 1663-73).
Trichinella spiralis infection: Mice were infected with 500 T. spiralis muscle stage larvae by oral gavage and were treated with vehicle (1:5, DMSO/PBS), 2 mg MZ, or 2 mg 4-(3-hydroxy-1-(4-methoxybenzyl)-2-oxoindolin-3-yl)benzenesulfonamide (CAR0037) i.p. daily; mice were sacrificed between on day 10-post infection and mast cell responses in the small intestine were evaluated by esterase staining as described previously (Henry, E. K., et al., J Exp Med, 2016. 213(9): p. 1663-73).

recombinant human Car1, sequence (P00915 whole entry): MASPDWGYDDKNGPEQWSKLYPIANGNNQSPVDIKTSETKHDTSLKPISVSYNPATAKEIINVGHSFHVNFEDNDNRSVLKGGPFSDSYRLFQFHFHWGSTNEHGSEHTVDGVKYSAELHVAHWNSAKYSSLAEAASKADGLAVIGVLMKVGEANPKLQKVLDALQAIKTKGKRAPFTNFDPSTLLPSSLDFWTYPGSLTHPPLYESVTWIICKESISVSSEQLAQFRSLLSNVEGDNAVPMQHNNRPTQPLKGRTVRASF

COc1ccc(CN2C(=O)C(O)(c3ccc(S(N)(=O)=O)cc3)c3ccccc32)cc1 (stereo not drawn) [CAR0037, 4-(3-hydroxy-1-(4-methoxybenzyl)-2-oxoindolin-3-yl)benzenesulfonamide]
IC50 (recombinant human Car1): 0.044 nM | inhibition of mast cell development compared to MZ ([1]; 10 uM, IL-3 10 ng/mL, seven days, versus 126.97 uM MZ): inhibited mast cell development as effectively as 126.97 uM of MZ | intestinal mast cell responses post-infection (esterase staining) [2]: significantly decreased intestinal mast cell numbers

CC(=O)/N=c1/sc(S(N)(=O)=O)nn1C [MZ, methazolamide, reference compound]
mast cell numbers ([1]; 30 μg/mL (126.97 uM), IL-3 10 ng/mL, seven days): significantly decreased mast cell numbers | inhibition at 126 µM ([1]; Mus musculus, Mast cell, read-out: POI of control (percent of inhibition based on MC numbers)): 78 to 100% | intestinal mast cell responses post-infection (esterase staining) [2]: no changes in mast cell responses
